Measured values taken from ChEMBL document CHEMBL1201862, “PubChem BioAssay data set” (2004).
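Growth conditions: 96-well plates. Treatment: test compound, 48 hours, 5 concentrations. Analysis: linear interpolation between bracketing concentrations; unreached endpoints set to highest concentration. GI50 = concentration required for 50% inhibition of growth.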 Activity calls are given as the source filed them. Rule as the data show it: active = GI50 up to about 1.1 µM and inactive = higher.

Tests used:
Experiment in all cases: growth of human tumour cells (NCI), 48 h
[1] = system: HOP-62
[2] = system: ACHN
[3] = system: RPMI-8226
[4] = system: OVCAR-8
[5] = system: A498
[6] = system: UACC-257
[7] = system: SNB-19
[8] = system: HCT-116
[9] = system: XF498
[10] = system: DMS-273
[11] = system: HOP-92
[12] = system: KM-20L2
[13] = system: LXFL 529
[14] = system: OVCAR-4
[15] = system: UACC-62
[16] = system: SW-620
[17] = system: HCC 2998
[18] = system: SR
[19] = system: SF-268
[20] = system: IGROV-1
[21] = system: CCRF-CEM
[22] = system: SK-MEL-28
[23] = system: OVCAR-3
[24] = system: CAKI-1
[25] = system: Malme-3M
[26] = system: EKVX
[27] = system: UO-31
[28] = system: KM12
[29] = system: HL-60
[30] = system: DMS-114
[31] = system: 786-0
[32] = system: MOLT-4
[33] = system: SK-OV-3
[34] = system: HCT-15
[35] = system: LOX IMVI
[36] = system: OVCAR-5
[37] = system: M14
[38] = system: K562
[39] = system: COLO 205
[40] = system: SK-MEL-5
[41] = system: A549
[42] = system: NCI-H23
[43] = system: HOP-18
[44] = system: SF-539
[45] = system: U-251
[46] = system: SN12C
[47] = system: SNB-78
[48] = system: SF-295
[49] = system: RXF 393
[50] = system: MCF7
[51] = system: HT-29
[52] = system: DLD-1
[53] = system: NCI-H460
[54] = system: NCI-H226
[55] = system: NCI/ADR-RES
[56] = system: SK-MEL-2
[57] = system: SNB-75
[58] = system: NCI-H522
[59] = system: M19-MEL
[60] = system: TK-10

CC1=C2[C@@H](c3ccccc3)C3C=CC2(c2ccccc23)N(C(=O)Nc2cccc3ccccc23)C1=O (some centres not stated)
GI50 [1]: > 100 µM (inactive)
GI50 [2]: > 100 µM (inactive)
GI50 [3]: > 100 µM (inactive)
GI50 [4]: > 100 µM (inactive)
GI50 [5]: > 100 µM (inactive)
GI50 [6]: > 100 µM (inactive)
GI50 [7]: > 100 µM (inactive)
GI50 [8]: > 100 µM (inactive)
GI50 [9]: > 100 µM (inactive)
GI50 [10]: > 100 µM (inactive)
GI50 [11]: > 100 µM (inactive)
GI50 [12]: > 100 µM (inactive)
GI50 [13]: > 100 µM (inactive)
GI50 [14]: > 100 µM (inactive)
GI50 [15]: > 100 µM (inactive)
GI50 [16]: > 100 µM (inactive)
GI50 [17]: > 100 µM (inactive)
GI50 [18]: > 100 µM (inactive)
GI50 [19]: > 100 µM (inactive)
GI50 [20]: > 100 µM (inactive)
GI50 [21]: > 100 µM (inactive)
GI50 [22]: > 100 µM (inactive)
GI50 [23]: > 100 µM (inactive)
GI50 [24]: > 100 µM (inactive)
GI50 [25]: > 100 µM (inactive)
GI50 [26]: > 100 µM (inactive)
GI50 [27]: > 100 µM (inactive)
GI50 [28]: > 100 µM (inactive)
GI50 [29]: > 100 µM (inactive)
GI50 [30]: > 100 µM (inactive)
GI50 [31]: > 100 µM (inactive)
GI50 [32]: > 100 µM (inactive)
GI50 [33]: > 100 µM (inactive)
GI50 [34]: > 100 µM
GI50 [35]: > 100 µM (inactive)
GI50 [36]: > 100 µM (inactive)
GI50 [37]: > 100 µM (inactive)
GI50 [38]: > 100 µM (inactive)
GI50 [39]: > 100 µM (inactive)
GI50 [40]: > 100 µM (inactive)
GI50 [41]: > 100 µM (inactive)
GI50 [42]: > 100 µM (inactive)
GI50 [43]: > 100 µM (inactive)
GI50 [44]: > 100 µM (inactive)
GI50 [45]: > 100 µM (inactive)
GI50 [46]: > 100 µM (inactive)
GI50 [47]: > 100 µM (inactive)
GI50 [48]: > 100 µM (inactive)

CC1=C2C(O)C(C(C)C(=O)NC(C)C)CCC2(C)C=CC1=O (configuration not stated)
GI50 [1]: > 100 µM (inactive)
GI50 [3]: > 100 µM (inactive)
GI50 [49]: > 100 µM (inactive)
GI50 [4]: > 100 µM (inactive)
GI50 [5]: > 100 µM (inactive)
GI50 [6]: > 100 µM (inactive)
GI50 [7]: > 100 µM (inactive)
GI50 [8]: > 100 µM (inactive)
GI50 [9]: > 100 µM (inactive)
GI50 [10]: > 100 µM (inactive)
GI50 [11]: > 100 µM (inactive)
GI50 [12]: > 100 µM (inactive)
GI50 [14]: > 100 µM (inactive)
GI50 [15]: > 100 µM (inactive)
GI50 [50]: > 100 µM (inactive)
GI50 [16]: > 100 µM (inactive)
GI50 [51]: > 100 µM (inactive)
GI50 [17]: > 100 µM (inactive)
GI50 [19]: > 100 µM (inactive)
GI50 [52]: > 100 µM (inactive)
GI50 [20]: > 100 µM (inactive)
GI50 [21]: > 100 µM (inactive)
GI50 [22]: > 100 µM (inactive)
GI50 [23]: > 100 µM (inactive)
GI50 [24]: > 100 µM (inactive)
GI50 [26]: > 100 µM (inactive)
GI50 [27]: > 100 µM (inactive)
GI50 [53]: > 100 µM (inactive)
GI50 [28]: > 100 µM (inactive)
GI50 [29]: > 100 µM (inactive)
GI50 [54]: > 100 µM (inactive)
GI50 [30]: > 100 µM (inactive)
GI50 [32]: > 100 µM (inactive)
GI50 [33]: > 100 µM (inactive)
GI50 [34]: > 100 µM
GI50 [35]: > 100 µM (inactive)
GI50 [55]: > 100 µM (inactive)
GI50 [36]: > 100 µM (inactive)
GI50 [38]: > 100 µM (inactive)
GI50 [39]: > 100 µM (inactive)
GI50 [56]: > 100 µM (inactive)
GI50 [40]: > 100 µM (inactive)
GI50 [41]: > 100 µM (inactive)
GI50 [42]: > 100 µM (inactive)
GI50 [43]: > 100 µM (inactive)
GI50 [57]: > 100 µM (inactive)
GI50 [44]: > 100 µM (inactive)
GI50 [45]: > 100 µM (inactive)
GI50 [58]: > 100 µM (inactive)
GI50 [46]: > 100 µM (inactive)
GI50 [47]: > 100 µM (inactive)
GI50 [48]: > 100 µM (inactive)

CCCCCCCCCCCCCCNCC(OCC)OCC
GI50 [1]: 16.5 µM (inactive)
GI50 [2]: 12.6 µM (inactive)
GI50 [49]: 10.2 µM (inactive)
GI50 [4]: 18.5 µM (inactive)
GI50 [5]: 14.4 µM (inactive)
GI50 [6]: 16.7 µM (inactive)
GI50 [7]: 16.5 µM (inactive)
GI50 [8]: 11.1 µM (inactive)
GI50 [9]: 13.6 µM (inactive)
GI50 [11]: 11.5 µM (inactive)
GI50 [12]: 10.9 µM (inactive)
GI50 [13]: 15.1 µM (inactive)
GI50 [14]: 13.6 µM (inactive)
GI50 [15]: 18.1 µM (inactive)
GI50 [59]: 16.2 µM (inactive)
GI50 [16]: 15.3 µM (inactive)
GI50 [51]: 2.86 µM (inactive)
GI50 [17]: 13.4 µM (inactive)
GI50 [19]: 17.3 µM (inactive)
GI50 [52]: 13.7 µM (inactive)
GI50 [20]: 15.2 µM (inactive)
GI50 [21]: 4.84 µM (inactive)
GI50 [22]: 16.9 µM (inactive)
GI50 [23]: 18.3 µM (inactive)
GI50 [25]: 17.1 µM (inactive)
GI50 [26]: 17.7 µM (inactive)
GI50 [27]: 10.7 µM (inactive)
GI50 [53]: 17.1 µM (inactive)
GI50 [28]: 10.3 µM (inactive)
GI50 [29]: 2.85 µM (inactive)
GI50 [54]: 18.4 µM (inactive)
GI50 [30]: 12.1 µM (inactive)
GI50 [31]: 16.9 µM (inactive)
GI50 [60]: 17.4 µM (inactive)
GI50 [33]: 18.6 µM (inactive)
GI50 [34]: 8.47 µM
GI50 [35]: 16.3 µM (inactive)
GI50 [36]: 15.3 µM (inactive)
GI50 [37]: 14.1 µM (inactive)
GI50 [39]: 14.4 µM (inactive)
GI50 [56]: 14.5 µM (inactive)
GI50 [40]: 13.9 µM (inactive)
GI50 [41]: 19.4 µM (inactive)
GI50 [42]: 16.1 µM (inactive)
GI50 [43]: 16.6 µM (inactive)
GI50 [57]: 10.4 µM (inactive)
GI50 [44]: 16.1 µM (inactive)
GI50 [45]: 15.1 µM (inactive)
GI50 [58]: 3.66 µM (inactive)
GI50 [46]: 13.7 µM (inactive)
GI50 [47]: 16.8 µM (inactive)
GI50 [48]: 16.7 µM (inactive)

C/C(=N\NC(N)=S)c1ccc(C2CCCCC2)cc1
GI50 [1]: 37.2 µM (inactive)
GI50 [3]: 22.2 µM (inactive)
GI50 [49]: 12.6 µM (inactive)
GI50 [4]: 15 µM (inactive)
GI50 [7]: 40.5 µM (inactive)
GI50 [8]: 14.4 µM (inactive)
GI50 [9]: 0.113 µM (active)
GI50 [12]: 14.7 µM (inactive)
GI50 [14]: 14.4 µM (inactive)
GI50 [15]: 14.2 µM (inactive)
GI50 [59]: 27.5 µM (inactive)
GI50 [51]: 10.5 µM (inactive)
GI50 [17]: 16.4 µM (inactive)
GI50 [18]: 21.4 µM (inactive)
GI50 [19]: > 100 µM (inactive)
GI50 [20]: 12 µM (inactive)
GI50 [22]: 16.6 µM (inactive)
GI50 [23]: 14.6 µM (inactive)
GI50 [24]: 25.6 µM (inactive)
GI50 [25]: 18.5 µM (inactive)
GI50 [26]: 71.4 µM (inactive)
GI50 [27]: 13 µM (inactive)
GI50 [28]: 15.9 µM (inactive)
GI50 [30]: 7.03 µM (inactive)
GI50 [31]: 13.6 µM (inactive)
GI50 [32]: 4.58 µM (inactive)
GI50 [60]: 26 µM (inactive)
GI50 [33]: 32 µM (inactive)
GI50 [36]: 11.1 µM (inactive)
GI50 [37]: 9.59 µM (inactive)
GI50 [38]: 12.2 µM (inactive)
GI50 [39]: 12 µM (inactive)
GI50 [56]: 13.5 µM (inactive)
GI50 [41]: 43.4 µM (inactive)
GI50 [42]: 16.9 µM (inactive)
GI50 [43]: 32.1 µM (inactive)
GI50 [44]: 19.8 µM (inactive)
GI50 [45]: 19 µM (inactive)
GI50 [47]: 25.9 µM (inactive)
GI50 [48]: 4.56 µM (inactive)
